# Patent US9636323B2, “Method of treating cancer that overexpresses TopBP1” (Baylor College of Medicine, priority 2014, dated 2017)
# Where two headings read alike, the source gives them in different places.
# Experiments:
# MDA-MB468 cells [1] = assay: MTS assay, MDA-MB468; type: cell-based, human; conditions: 5 h
# Experimental: (§1) Then 50 μl of MTS reagent (CellTiter 96® AQueous One Solution Cell Proliferation Assay, Promega) was added to each well, covered from light and incubated for 1 h at 37.0 incubator to develop purple color. The samples were measured at 490 nm in a plate reader (BioTek Synergy HT) against a blank 48-well plate. Each assay was done in triplicate.
# MCF10A cells = assay: MTS assay, MCF10A; type: cell-based, human; conditions: co-treated with doxorubicin, Calcein AM 2.5 μM, 5 h
# Experimental: as §1
# [2] = target: T1, TopBP1/E2F1 interaction in HEK293T cells (Homo sapiens, UniProt Q92547); assay: Co-immunoprecipitation of overexpressed E2F1 and TopBP1; type: cell-based; conditions: 5 h
# T1 construct: expressed in transfected cells
# T1 sequence (Q92547 whole entry): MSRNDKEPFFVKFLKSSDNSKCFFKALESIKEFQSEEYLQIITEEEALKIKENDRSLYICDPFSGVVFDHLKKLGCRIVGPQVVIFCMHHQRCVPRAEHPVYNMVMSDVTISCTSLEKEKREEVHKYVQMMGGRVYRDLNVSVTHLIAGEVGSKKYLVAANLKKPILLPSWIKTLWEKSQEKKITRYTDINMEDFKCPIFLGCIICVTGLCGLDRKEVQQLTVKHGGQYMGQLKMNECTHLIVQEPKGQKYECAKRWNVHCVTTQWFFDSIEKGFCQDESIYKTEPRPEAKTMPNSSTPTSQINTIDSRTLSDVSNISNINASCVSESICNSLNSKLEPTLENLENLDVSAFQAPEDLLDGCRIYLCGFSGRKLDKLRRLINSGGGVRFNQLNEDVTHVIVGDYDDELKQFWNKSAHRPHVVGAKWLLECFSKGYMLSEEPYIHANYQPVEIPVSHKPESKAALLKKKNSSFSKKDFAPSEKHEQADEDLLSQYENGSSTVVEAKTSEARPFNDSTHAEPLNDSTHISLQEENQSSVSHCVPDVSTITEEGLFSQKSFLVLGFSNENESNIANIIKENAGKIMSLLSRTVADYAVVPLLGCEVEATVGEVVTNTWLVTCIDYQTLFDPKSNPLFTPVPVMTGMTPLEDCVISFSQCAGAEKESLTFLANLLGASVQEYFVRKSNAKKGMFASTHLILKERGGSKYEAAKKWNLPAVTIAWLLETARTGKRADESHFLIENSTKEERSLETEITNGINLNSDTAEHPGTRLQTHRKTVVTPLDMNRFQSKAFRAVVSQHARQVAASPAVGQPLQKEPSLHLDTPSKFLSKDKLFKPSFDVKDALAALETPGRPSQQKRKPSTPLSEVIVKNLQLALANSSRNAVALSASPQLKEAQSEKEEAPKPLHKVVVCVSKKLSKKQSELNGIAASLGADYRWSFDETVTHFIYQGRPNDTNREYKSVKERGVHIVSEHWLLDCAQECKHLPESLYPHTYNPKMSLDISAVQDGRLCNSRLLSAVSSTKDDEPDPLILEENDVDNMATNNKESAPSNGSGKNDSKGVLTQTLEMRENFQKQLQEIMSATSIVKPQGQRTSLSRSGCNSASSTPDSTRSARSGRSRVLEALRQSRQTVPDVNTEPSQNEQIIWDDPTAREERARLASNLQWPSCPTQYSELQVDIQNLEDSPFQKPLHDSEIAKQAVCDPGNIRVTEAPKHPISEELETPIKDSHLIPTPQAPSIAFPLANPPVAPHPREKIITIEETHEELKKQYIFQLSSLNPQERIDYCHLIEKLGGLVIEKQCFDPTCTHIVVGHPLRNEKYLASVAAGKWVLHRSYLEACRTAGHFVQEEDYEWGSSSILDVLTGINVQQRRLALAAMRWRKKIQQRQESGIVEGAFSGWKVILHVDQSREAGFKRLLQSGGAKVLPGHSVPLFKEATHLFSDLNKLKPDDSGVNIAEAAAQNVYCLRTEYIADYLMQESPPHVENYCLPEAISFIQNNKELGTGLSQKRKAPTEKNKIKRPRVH
# Experimental: (§2) MDA-MB468 cells were lysed with TNN buffer (Liu et al. 2003). An aliquot of cell lysates was lysed with SDS lysis buffer and the rest of cell lysates were incubated with appropriate antibodies or beads at 4° C. for 3-12 h. Anti-FLAG beads (Sigma) were washed three times with TNN buffer. Immunoprecipitates were fractionated by SDS-PAGE and electro-transferred to Immobilon-P membrane (Millipore). Equal amount of protein loading was validated with Ponceau-S staining. The specific signals were detected by incubating with appropriate antibody. All primary antibodies were used at 1:1000 dilution and horseradish peroxidase (HRP)-conjugated secondary antibodies were used at 1:5000 dilution for immunoblotting. E2F1 (C-20 and KH-95), p53 (FL393), p63 (4A4 and H-129), p73 (H-79), p21 (C-19), Bax (N-20), GST (B-14), c-Myc (A14), Miz1 (H-190), Chk1 (G4), Actin (C-2) and GAPDH (6C5) antibodies were purchased from Santa Cruz. TopBP1 (mouse monoclonal) and Aid antibodies were purchased from BD Transduction Laboratories. TopBP1 (BL893, Rabbit polyclonal) antibody was purchased from Bethyl. Mouse monoclonal anti-phospho-γH2AX was purchased from Millipore. Phospho-Chk1 (Ser345) antibody was purchased from Cell signaling. FLAG (F7425) antibody was purchased from Sigma. Mouse monoclonal anti-p73 (IMG-246) was purchased from IMGENEX.
# NCI-60 cancer cell lines = conditions: NCI-DTP data, cited from earlier work
# MDA-MB468 cells [3] = assay: Colony formation assay; type: cell-based, human; conditions: 16 h treatment, then 8 days without drug
# Experimental: MDA-MB468 cells were plated in 6-well plates at 200 cells/well. […] Cells were grown in fresh media without drugs for additional 8 days to form colonies, when each colony contained more than 50 cells. Plates were then stained with […] crystal violet (0.5 g Crystal violet, 25 ml methanol and 75 ml H2O). Cell number was counted.
# [4] = test system: NCI-H520 lung cancer cells; assay: Caspase 3/7 activation assay, NCI-H520; type: cell-based; conditions: 2.5 or 5 μM, 16 hours
# Experimental: (§3) The apoptosis was measured by Caspase-Glo® 3/7 assay (Promega) following the manufacturer's protocol. The cells were plated in 6-well tissue culture dish (10^4 cells/well) (BD Falcon) in respective media. […] The blank reactions were prepared per direction. Equal volume of Caspase-Glo® 3/7 reagents were applied to each well. A luminometer (Sirius) was used to quantitate luminescence.
# TopBP1 oligomerization [5] = target: T2, TopBP1 oligomerization (Homo sapiens, UniProt Q92547); assay: TopBP1 oligomerization in MDA-MB468 cells (co-IP of tagged TopBP1, DMP cross-linking); type: cell-based; conditions: 2.5 μM, 5 h
# T2 construct: endogenous in cells; host or cells: MDA-MB468
# T2 sequence (Q92547 whole entry): as above
# Experimental: as §2, with “IMGENEX. […]” for “IMGENEX.”
# TopBP1 oligomerization [6] = assay: as above; type: cell-based, human; conditions: 2.5 μM, 5 h
# Experimental: as §2, with “IMGENEX. […]” for “IMGENEX.”
# [7] = test system: U-87 MG glioblastoma multiforme cells; assay: Caspase 3/7 activation assay, U-87 MG; type: cell-based; conditions: 2.5 or 5 μM, 16 hours
# Experimental: as §3
# TopBP1/E2F1 interaction [8] = target: T3, TopBP1/E2F1 interaction (Homo sapiens, UniProt Q92547); assay: Co-immunoprecipitation in BT549 cells, TopBP1/E2F1; type: cell-based; conditions: 2.5 μM, 3 h
# T3 construct: endogenous in cells; host or cells: MDA-MB468
# T3 sequence (Q92547 whole entry): as above
# mutp53/p73 interaction = assay: Anti-p73 immunoprecipitation in MDA-MB468 cells; type: cell-based, human; conditions: 2.5 μM, 5 h
# Experimental: as §2
# TopBP1/E2F1 interaction [9] = target: T3, TopBP1/E2F1 interaction; assay: Co-immunoprecipitation in MDA-MB468 cells, TopBP1/E2F1; type: cell-based; conditions: 2.5 μM, 5 h
# Experimental: as §2
# MDA-MB468 cells [10] = assay: Mammosphere formation; type: cell-based, human; conditions: 2.5 μM, 11 days
# Experimental: For in vitro mammosphere culture, ˜5000 MDA-MB468 cells/well were seeded into a Ultra-low Adherent 6-well plate (Stem Cell Technologies) with 2 ml/well fresh complete MammoCult™ medium (Stem Cell Technologies) containing the MammoCult® Basal Medium, MammoCult® Proliferation Supplement, 4 μg/ml Heparin (Stem Cell Technologies) and fresh 0.48 μg/ml Hydrocortisone. Cells were incubated in a 5% CO2 incubator at 37° C. for 7-11 days. […] Each treatment was done in triplicate.
smiles,measurement,setting,value
"CC(=O)OCOC(=O)CN(CC(=O)OCOC(C)=O)Cc1cc2c(cc1OC(C)=O)Oc1cc(OC(C)=O)c(CN(CC(=O)OCOC(C)=O)CC(=O)OCOC(C)=O)cc1C21OC(=O)c2ccccc21 [Calcein AM, Calcein AM (acetoxymethyl ester)]",doxorubicin sensitivity (MTS),"MDA-MB468 cells [1]; TopBP1-depleted cells, 2.5 μM",failed to cast the same effect
same,doxorubicin sensitivity (MTS),"MDA-MB468 cells [1]; co-treated with doxorubicin, Calcein AM 2.5 μM",greatly enhanced the doxorubicin sensitivity
same,proliferation (MTS),"MDA-MB468 cells [1]; increasing concentrations, versus MCF10A",preferentially inhibited the proliferation
same,doxorubicin sensitivity (MTS),"MDA-MB468 cells [1]; shScr control cells, 2.5 μM",sensitized
same,doxorubicin sensitivity (MTS),MCF10A cells,not
same,interaction between overexpressed E2F1 and TopBP1,[2],inhibited the interaction between overexpressed E2F1 and TopBP1
same,GI50,NCI-60 cancer cell lines; read-out: average GI50 over all 60 cell lines,662 nM
same,GI50,NCI-60 cancer cell lines; read-out: highest GI50 of the 60 cell lines,11000 nM
same,GI50,NCI-60 cancer cell lines; read-out: lowest GI50 of the 60 cell lines,10 nM
same,concentration at which inhibition of colony formation was apparent,MDA-MB468 cells [3],≥ 0.1 µM
same,apoptosis (caspase 3/7 activation),[4],induced apoptosis
same,"endogenous TopBP1 oligomerization, DMP chemical crosslinking assay",TopBP1 oligomerization [5],blocked endogenous TopBP1 oligomerization
same,"TopBP1 oligomerization, differentially tagged TopBP1",TopBP1 oligomerization [6],inhibit TopBP1 oligomerization
same,apoptosis (caspase 3/7 activation),[7],induced apoptosis
same,interaction between TopBP1 and E2F1,TopBP1/E2F1 interaction [8],inhibited
same,binding of p73 to mutp53,mutp53/p73 interaction,release of p73 from mutp53
same,TopBP1/E2F1 interaction at physiological levels,TopBP1/E2F1 interaction [9],inhibited
same,mammosphere formation,MDA-MB468 cells [10],blocked
